Data taken from ChEMBL document CHEMBL1148520, “5-(Dimethoxymethyl)-2'-deoxyuridine: a novel gem diether nucleoside with anti-orthopoxvirus activity” (J Med Chem, 2006).

tested on: Vaccinia virus; test: Antiviral activity against vaccinia virus Copenhagen measured as cytopathogenicity in HFF cells; format: functional, organism-based; conditions: Orthopoxvirus vaccinia

| Structure (SMILES) | EC50 [µM] |
| --- | --- |
| CCOC(OCC)c1cn(C2C[C@H](OC(C)=O)[C@@H](COC(C)=O)O2)c(=O)[nH]c1=O (some centres not stated) | 38 |
| COC(OC)c1cnc(O)nc1O | > 300 |
| CC(=O)OC[C@H]1OC(n2cc(C3OCCCO3)c(=O)[nH]c2=O)C[C@@H]1OC(C)=O (some centres not stated) | > 300 |
| CC(=O)OC[C@H]1OC(n2cc(C=O)c(=O)[nH]c2=O)C[C@@H]1OC(C)=O (some centres not stated) | > 300 |
| COC(OC)c1cn(C2C[C@H](OC(C)=O)[C@@H](COC(C)=O)O2)c(=O)[nH]c1=O (some centres not stated) | 296 |
| COC(OC)c1cn(C2C[C@H](O)[C@@H](CO)O2)c(=O)[nH]c1=O (some centres not stated) | 8.4 |
| O=Cc1cn([C@H]2C[C@H](O)[C@@H](CO)O2)c(=O)[nH]c1=O | > 300 |
| CC(=O)OC[C@H]1OC(n2cc(C3OCCO3)c(=O)[nH]c2=O)C[C@@H]1OC(C)=O (some centres not stated) | > 300 |
| CCOC(OCC)c1cn(C2C[C@H](O)[C@@H](CO)O2)c(=O)[nH]c1=O (some centres not stated) | > 60 |
| O=c1[nH]c(=O)n(C2CC(O)[C@@H](CO)O2)cc1C1OCCO1 (single isomer, unassigned) | > 300 |
| O=c1[nH]c(=O)n(C2CC(O)[C@@H](CO)O2)cc1C1OCCCO1 (single isomer, unassigned) | > 300 |
| Nc1ccn(C[C@@H](CO)OCP(=O)(O)O)c(=O)n1 [CIDOFOVIR] | 6.9 |
